# In paper PMC4767141, “Discovery of Potent, Orally Bioavailable, Small-Molecule Inhibitors of WNT Signaling from a Cell-Based Pathway Screen” (Journal of Medicinal Chemistry, 2015):
# Values joined by “and” are separate entries in the source; they are usually repeats but may differ in a detail not shown here. Equal entries are not always repeated.
# What was measured:
# α1 (non-selective) = test: CEREP binding panel; conditions: 10 μM, antagonist radioligand
# ETA (h) = biological target: T1, ETA (h) (Homo sapiens, UniProt P25101); test: CEREP binding panel; conditions: agonist radioligand, read-out: % Inhibition of Control Specific Binding
# T1 construct: purchased Millipore KinaseProfiler (kinases); Cerep (receptors and ion channels)
# GAL2 (h) = biological target: T2, GAL2 (h) (Homo sapiens, UniProt O43603); test: CEREP binding panel; conditions: agonist radioligand, read-out: % Inhibition of Control Specific Binding
# T2 construct: purchased Millipore KinaseProfiler (kinases); Cerep (receptors and ion channels)
# H1 (h) = biological target: T3, H1 (h) (Homo sapiens, UniProt P35367); test: CEREP binding panel; conditions: antagonist radioligand, read-out: % Inhibition of Control Specific Binding
# T3 construct: purchased Millipore KinaseProfiler (kinases); Cerep (receptors and ion channels)
# H2 (h) = biological target: T4, H2 (h) (Homo sapiens, UniProt P25021); test: CEREP binding panel; conditions: antagonist radioligand, read-out: % Inhibition of Control Specific Binding
# T4 construct: purchased Millipore KinaseProfiler (kinases); Cerep (receptors and ion channels)
# NK3 (h) = biological target: T5, NK3 (h) (Homo sapiens, UniProt P29371); test: CEREP binding panel; conditions: antagonist radioligand, read-out: % Inhibition of Control Specific Binding
# T5 construct: purchased Millipore KinaseProfiler (kinases); Cerep (receptors and ion channels)
# κ (KOP) = biological target: T6, κ (KOP) (Rattus norvegicus, UniProt P34975); test: CEREP binding panel; conditions: 10 μM, agonist radioligand
# T6 construct: purchased Millipore KinaseProfiler (kinases); Cerep (receptors and ion channels)
# 5-HT1A (h) = biological target: T7, 5-HT1A (h) (Homo sapiens, UniProt P08908); test: CEREP binding panel; conditions: agonist radioligand, read-out: % Inhibition of Control Specific Binding
# T7 construct: purchased Millipore KinaseProfiler (kinases); Cerep (receptors and ion channels)
# 5-HT7 (h) = biological target: T8, 5-HT7 (h) (Homo sapiens, UniProt P34969); test: CEREP binding panel; conditions: agonist radioligand, read-out: % Inhibition of Control Specific Binding
# T8 construct: purchased Millipore KinaseProfiler (kinases); Cerep (receptors and ion channels)
# T8 sequence (P34969 whole entry): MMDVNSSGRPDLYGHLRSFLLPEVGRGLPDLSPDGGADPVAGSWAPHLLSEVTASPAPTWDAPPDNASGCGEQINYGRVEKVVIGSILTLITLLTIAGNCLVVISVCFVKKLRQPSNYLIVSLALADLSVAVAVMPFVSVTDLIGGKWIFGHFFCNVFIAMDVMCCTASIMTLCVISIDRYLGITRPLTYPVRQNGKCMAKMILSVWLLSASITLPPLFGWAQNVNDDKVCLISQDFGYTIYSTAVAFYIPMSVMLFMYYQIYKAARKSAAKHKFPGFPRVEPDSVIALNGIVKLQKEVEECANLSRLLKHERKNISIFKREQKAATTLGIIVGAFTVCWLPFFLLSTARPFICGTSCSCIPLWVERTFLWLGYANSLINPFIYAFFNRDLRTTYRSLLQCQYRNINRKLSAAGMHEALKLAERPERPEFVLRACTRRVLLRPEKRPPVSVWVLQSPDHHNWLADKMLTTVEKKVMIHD
# BLK = test: Millipore kinase panel; type: biochemical; conditions: 1 μM, ATP at Km
# CAMKI = biological target: T9, CAMKI (Homo sapiens, UniProt Q14012); test: Millipore kinase panel; type: biochemical; conditions: read-out: % Control
# T9 construct: purchased Millipore KinaseProfiler (kinases); Cerep (receptors and ion channels)
# CDK5/P25 = biological target: T10, CDK5/P25 (Homo sapiens, UniProt Q00535); test: Millipore kinase panel; type: biochemical; conditions: read-out: % Control
# T10 construct: purchased Millipore KinaseProfiler (kinases); Cerep (receptors and ion channels)
# CDK6/CYCLIND3 = biological target: T11, CDK6/CYCLIND3 (Homo sapiens, UniProt Q00534); test: Millipore kinase panel; type: biochemical; conditions: read-out: % Control
# T11 construct: purchased Millipore KinaseProfiler (kinases); Cerep (receptors and ion channels)
# T11 sequence (Q00534 whole entry): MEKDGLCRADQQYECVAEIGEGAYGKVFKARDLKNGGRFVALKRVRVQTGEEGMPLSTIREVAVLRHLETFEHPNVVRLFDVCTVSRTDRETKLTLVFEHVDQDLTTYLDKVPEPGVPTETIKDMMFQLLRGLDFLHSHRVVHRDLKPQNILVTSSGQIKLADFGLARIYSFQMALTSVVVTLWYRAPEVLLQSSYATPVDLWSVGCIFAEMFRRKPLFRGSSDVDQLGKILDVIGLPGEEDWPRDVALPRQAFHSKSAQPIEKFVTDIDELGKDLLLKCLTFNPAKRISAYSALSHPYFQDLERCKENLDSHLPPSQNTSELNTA
# T11 sequence (P30281 whole entry partner): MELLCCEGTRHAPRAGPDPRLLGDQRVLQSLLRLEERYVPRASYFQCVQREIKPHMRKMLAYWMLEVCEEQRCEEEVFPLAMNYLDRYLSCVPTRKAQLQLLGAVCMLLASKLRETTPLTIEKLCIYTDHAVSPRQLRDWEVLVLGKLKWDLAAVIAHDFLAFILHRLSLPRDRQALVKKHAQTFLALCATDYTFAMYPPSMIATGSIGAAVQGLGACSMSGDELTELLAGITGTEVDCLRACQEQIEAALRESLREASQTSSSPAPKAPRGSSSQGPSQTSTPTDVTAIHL
# CDK7/CYCLINH/MAT1 = biological target: T12, CDK7/CYCLINH/MAT1 (Homo sapiens, UniProt P50613); test: Millipore kinase panel; type: biochemical; conditions: read-out: % Control
# T12 construct: purchased Millipore KinaseProfiler (kinases); Cerep (receptors and ion channels)
# DMPK = biological target: T13, DMPK (Homo sapiens, UniProt Q09013); test: Millipore kinase panel; type: biochemical; conditions: read-out: % Control
# T13 construct: purchased Millipore KinaseProfiler (kinases); Cerep (receptors and ion channels)
# DYRK2 = biological target: T14, DYRK2 (Homo sapiens, UniProt Q92630); test: Millipore kinase panel; type: biochemical; conditions: read-out: % Control
# T14 construct: purchased Millipore KinaseProfiler (kinases); Cerep (receptors and ion channels)
# EPHA1 = biological target: T15, EPHA1 (Homo sapiens, UniProt P21709); test: Millipore kinase panel; type: biochemical; conditions: read-out: % Control
# T15 construct: purchased Millipore KinaseProfiler (kinases); Cerep (receptors and ion channels)
# EPHA2 = biological target: T16, EPHA2 (Homo sapiens, UniProt P29317); test: Millipore kinase panel; type: biochemical; conditions: read-out: % Control
# T16 construct: purchased Millipore KinaseProfiler (kinases); Cerep (receptors and ion channels)
# EPHB3 = biological target: T17, EPHB3 (Homo sapiens, UniProt P54753); test: Millipore kinase panel; type: biochemical; conditions: read-out: % Control
# T17 construct: purchased Millipore KinaseProfiler (kinases); Cerep (receptors and ion channels)
# FGFR1 = biological target: T18, FGFR1 (Homo sapiens, UniProt P11362); test: Millipore kinase panel; type: biochemical; conditions: read-out: % Control
# T18 construct: purchased Millipore KinaseProfiler (kinases); Cerep (receptors and ion channels)
# T18 sequence (P11362 22-822): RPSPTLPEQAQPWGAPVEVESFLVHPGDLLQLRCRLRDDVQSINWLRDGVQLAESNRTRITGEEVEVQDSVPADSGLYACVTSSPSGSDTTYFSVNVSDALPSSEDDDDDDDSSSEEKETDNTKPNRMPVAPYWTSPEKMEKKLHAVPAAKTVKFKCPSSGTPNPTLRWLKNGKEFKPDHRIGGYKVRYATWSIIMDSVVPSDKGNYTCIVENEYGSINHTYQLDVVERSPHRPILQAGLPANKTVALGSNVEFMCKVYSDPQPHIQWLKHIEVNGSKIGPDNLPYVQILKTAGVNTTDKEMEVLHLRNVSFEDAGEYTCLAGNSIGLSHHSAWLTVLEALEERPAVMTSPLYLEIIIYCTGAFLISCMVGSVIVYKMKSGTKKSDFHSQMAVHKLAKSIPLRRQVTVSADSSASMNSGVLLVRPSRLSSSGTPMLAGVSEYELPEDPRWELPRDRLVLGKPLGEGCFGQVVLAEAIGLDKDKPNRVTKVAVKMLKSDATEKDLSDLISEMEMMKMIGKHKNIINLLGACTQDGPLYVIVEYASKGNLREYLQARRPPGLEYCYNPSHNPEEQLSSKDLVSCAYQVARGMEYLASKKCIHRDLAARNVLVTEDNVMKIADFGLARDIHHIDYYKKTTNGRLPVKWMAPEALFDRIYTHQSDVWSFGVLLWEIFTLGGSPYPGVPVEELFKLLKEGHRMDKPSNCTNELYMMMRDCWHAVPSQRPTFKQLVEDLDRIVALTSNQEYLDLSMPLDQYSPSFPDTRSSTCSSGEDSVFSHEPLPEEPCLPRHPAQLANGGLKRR
# FGR = biological target: T19, FGR (Homo sapiens, UniProt P09769); test: Millipore kinase panel; type: biochemical; conditions: read-out: % Control
# T19 construct: purchased Millipore KinaseProfiler (kinases); Cerep (receptors and ion channels)
# FLT1 = biological target: T20, FLT1 (Homo sapiens, UniProt P17948); test: Millipore kinase panel; type: biochemical; conditions: read-out: % Control
# T20 construct: purchased Millipore KinaseProfiler (kinases); Cerep (receptors and ion channels)
# HIPK1 = biological target: T21, HIPK1 (Homo sapiens, UniProt Q86Z02); test: Millipore kinase panel; type: biochemical; conditions: read-out: % Control
# T21 construct: purchased Millipore KinaseProfiler (kinases); Cerep (receptors and ion channels)
# T21 sequence (Q86Z02 whole entry): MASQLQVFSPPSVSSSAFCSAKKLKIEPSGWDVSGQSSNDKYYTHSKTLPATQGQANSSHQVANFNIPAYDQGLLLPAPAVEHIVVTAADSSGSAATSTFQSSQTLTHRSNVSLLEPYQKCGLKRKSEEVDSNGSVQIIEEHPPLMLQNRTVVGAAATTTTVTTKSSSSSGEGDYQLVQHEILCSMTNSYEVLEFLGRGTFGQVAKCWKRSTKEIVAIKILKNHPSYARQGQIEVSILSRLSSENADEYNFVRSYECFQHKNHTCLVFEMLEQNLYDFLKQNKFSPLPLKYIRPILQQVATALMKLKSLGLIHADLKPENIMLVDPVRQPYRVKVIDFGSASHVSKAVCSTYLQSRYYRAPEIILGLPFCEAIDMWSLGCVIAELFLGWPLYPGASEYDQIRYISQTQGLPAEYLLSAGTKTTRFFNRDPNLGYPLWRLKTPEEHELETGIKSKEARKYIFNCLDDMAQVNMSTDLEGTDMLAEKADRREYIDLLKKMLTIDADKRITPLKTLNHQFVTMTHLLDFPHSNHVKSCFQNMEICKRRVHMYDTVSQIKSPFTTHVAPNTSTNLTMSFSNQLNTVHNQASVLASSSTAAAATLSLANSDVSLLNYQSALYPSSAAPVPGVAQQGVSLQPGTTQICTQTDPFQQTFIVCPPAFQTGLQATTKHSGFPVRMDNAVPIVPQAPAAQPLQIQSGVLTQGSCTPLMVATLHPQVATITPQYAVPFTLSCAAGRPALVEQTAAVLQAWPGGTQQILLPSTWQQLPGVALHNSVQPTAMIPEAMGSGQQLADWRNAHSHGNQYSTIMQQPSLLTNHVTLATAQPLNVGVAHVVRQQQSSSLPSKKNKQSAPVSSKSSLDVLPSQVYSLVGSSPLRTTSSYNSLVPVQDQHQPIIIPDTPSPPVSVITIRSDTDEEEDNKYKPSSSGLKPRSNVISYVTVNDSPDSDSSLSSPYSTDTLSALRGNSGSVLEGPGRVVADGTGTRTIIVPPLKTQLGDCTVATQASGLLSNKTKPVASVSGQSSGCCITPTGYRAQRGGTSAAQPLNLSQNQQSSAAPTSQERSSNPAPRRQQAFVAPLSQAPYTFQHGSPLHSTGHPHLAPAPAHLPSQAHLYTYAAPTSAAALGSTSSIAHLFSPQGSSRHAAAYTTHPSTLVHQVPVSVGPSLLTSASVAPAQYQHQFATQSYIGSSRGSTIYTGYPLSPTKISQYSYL
# IRAK4 = biological target: T22, IRAK4 (Homo sapiens, UniProt Q9NWZ3); test: Millipore kinase panel; type: biochemical; conditions: read-out: % Control
# T22 construct: purchased Millipore KinaseProfiler (kinases); Cerep (receptors and ion channels)
# JNK1ALPHA1 = biological target: T23, JNK1ALPHA1 (Homo sapiens, UniProt P45983); test: Millipore kinase panel; type: biochemical; conditions: read-out: % Control
# T23 construct: purchased Millipore KinaseProfiler (kinases); Cerep (receptors and ion channels)
# T23 sequence (P45983 1-384 isoform P45983-2): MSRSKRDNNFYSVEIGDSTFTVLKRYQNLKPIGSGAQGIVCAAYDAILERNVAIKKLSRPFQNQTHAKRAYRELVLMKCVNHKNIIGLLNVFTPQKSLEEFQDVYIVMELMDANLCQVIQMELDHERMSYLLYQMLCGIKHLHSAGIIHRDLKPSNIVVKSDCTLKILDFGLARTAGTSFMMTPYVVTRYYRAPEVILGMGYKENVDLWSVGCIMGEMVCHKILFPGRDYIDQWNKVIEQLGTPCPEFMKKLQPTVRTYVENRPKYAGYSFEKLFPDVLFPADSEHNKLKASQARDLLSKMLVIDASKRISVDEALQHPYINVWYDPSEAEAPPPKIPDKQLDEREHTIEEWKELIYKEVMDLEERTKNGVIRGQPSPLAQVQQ
# CKIT = biological target: T24, CKIT (Homo sapiens, UniProt P10721); test: Millipore kinase panel; type: biochemical; conditions: read-out: % Control
# T24 construct: purchased Millipore KinaseProfiler (kinases); Cerep (receptors and ion channels)
# LOK = biological target: T25, LOK (Homo sapiens, UniProt O94804); test: Millipore kinase panel; type: biochemical; conditions: read-out: % Control
# T25 construct: purchased Millipore KinaseProfiler (kinases); Cerep (receptors and ion channels)
# MLCK = biological target: T26, MLCK (Homo sapiens, UniProt Q9H1R3); test: Millipore kinase panel; type: biochemical; conditions: read-out: % Control
# T26 construct: purchased Millipore KinaseProfiler (kinases); Cerep (receptors and ion channels)
# MLK1 = biological target: T27, MLK1 (Homo sapiens, UniProt P80192); test: Millipore kinase panel; type: biochemical; conditions: read-out: % Control
# T27 construct: purchased Millipore KinaseProfiler (kinases); Cerep (receptors and ion channels)
# MRCKBETA = biological target: T28, MRCKBETA (Homo sapiens, UniProt Q9Y5S2); test: Millipore kinase panel; type: biochemical; conditions: read-out: % Control
# T28 construct: purchased Millipore KinaseProfiler (kinases); Cerep (receptors and ion channels)
# MSK1 = biological target: T29, MSK1 (Homo sapiens, UniProt O75582); test: Millipore kinase panel; type: biochemical; conditions: read-out: % Control
# T29 construct: purchased Millipore KinaseProfiler (kinases); Cerep (receptors and ion channels)
# MUSK = biological target: T30, MUSK (Homo sapiens, UniProt O15146); test: Millipore kinase panel; type: biochemical; conditions: read-out: % Control
# T30 construct: purchased Millipore KinaseProfiler (kinases); Cerep (receptors and ion channels)
# T30 sequence (O15146 24-869): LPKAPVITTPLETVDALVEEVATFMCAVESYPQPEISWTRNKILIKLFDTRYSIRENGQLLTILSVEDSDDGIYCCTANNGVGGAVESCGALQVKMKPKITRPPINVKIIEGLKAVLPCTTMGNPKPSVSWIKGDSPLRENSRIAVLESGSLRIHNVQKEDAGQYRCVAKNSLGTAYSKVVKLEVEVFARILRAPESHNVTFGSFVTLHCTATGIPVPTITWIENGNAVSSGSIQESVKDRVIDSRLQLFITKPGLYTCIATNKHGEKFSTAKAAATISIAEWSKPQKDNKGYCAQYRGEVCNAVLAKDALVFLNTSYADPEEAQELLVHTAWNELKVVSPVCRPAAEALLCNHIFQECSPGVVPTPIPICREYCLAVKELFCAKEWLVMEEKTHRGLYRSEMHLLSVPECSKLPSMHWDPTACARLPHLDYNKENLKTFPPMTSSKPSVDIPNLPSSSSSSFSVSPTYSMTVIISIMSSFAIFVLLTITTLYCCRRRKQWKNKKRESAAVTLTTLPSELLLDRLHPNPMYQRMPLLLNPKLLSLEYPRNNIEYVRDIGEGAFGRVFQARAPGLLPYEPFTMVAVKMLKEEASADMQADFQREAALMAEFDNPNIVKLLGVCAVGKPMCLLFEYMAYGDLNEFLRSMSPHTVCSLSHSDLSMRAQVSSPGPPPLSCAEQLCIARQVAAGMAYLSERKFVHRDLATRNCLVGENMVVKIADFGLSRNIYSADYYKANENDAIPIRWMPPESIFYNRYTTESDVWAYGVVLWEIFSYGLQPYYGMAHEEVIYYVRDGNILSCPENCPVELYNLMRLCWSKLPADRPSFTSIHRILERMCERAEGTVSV
# PAK4 = biological target: T31, PAK4 (Homo sapiens, UniProt O96013); test: Millipore kinase panel; type: biochemical; conditions: read-out: % Control
# T31 construct: purchased Millipore KinaseProfiler (kinases); Cerep (receptors and ion channels)
# PDGFRALPHA = biological target: T32, PDGFRALPHA (Homo sapiens, UniProt P16234); test: Millipore kinase panel; type: biochemical; conditions: read-out: % Control
# T32 construct: purchased Millipore KinaseProfiler (kinases); Cerep (receptors and ion channels)
# RON = biological target: T33, RON (Homo sapiens, UniProt Q04912); test: Millipore kinase panel; type: biochemical; conditions: read-out: % Control
# T33 construct: purchased Millipore KinaseProfiler (kinases); Cerep (receptors and ion channels)
# SAPK2A = biological target: T34, SAPK2A (Homo sapiens, UniProt Q16539); test: Millipore kinase panel; type: biochemical; conditions: read-out: % Control
# T34 construct: purchased Millipore KinaseProfiler (kinases); Cerep (receptors and ion channels)
# SAPK3 = biological target: T35, SAPK3 (Homo sapiens, UniProt P53778); test: Millipore kinase panel; type: biochemical; conditions: read-out: % Control
# T35 construct: purchased Millipore KinaseProfiler (kinases); Cerep (receptors and ion channels)
# SNK = biological target: T36, SNK (Homo sapiens, UniProt Q9NYY3); test: Millipore kinase panel; type: biochemical; conditions: read-out: % Control
# T36 construct: purchased Millipore KinaseProfiler (kinases); Cerep (receptors and ion channels)
# SRPK1 = biological target: T37, SRPK1 (Homo sapiens, UniProt Q96SB4); test: Millipore kinase panel; type: biochemical; conditions: read-out: % Control
# T37 construct: purchased Millipore KinaseProfiler (kinases); Cerep (receptors and ion channels)
# ZAP-70 = biological target: T38, ZAP-70 (Homo sapiens, UniProt P43403); test: Millipore kinase panel; type: biochemical; conditions: read-out: % Control
# T38 construct: purchased Millipore KinaseProfiler (kinases); Cerep (receptors and ion channels)
# GRK6 = biological target: T39, GRK6 (Homo sapiens, UniProt P43250); test: Millipore kinase panel; type: biochemical; conditions: read-out: % Control
# T39 construct: purchased Millipore KinaseProfiler (kinases); Cerep (receptors and ion channels)
# FAK = biological target: T40, FAK (Homo sapiens, UniProt Q05397); test: Millipore kinase panel; type: biochemical; conditions: read-out: % Control
# T40 construct: purchased Millipore KinaseProfiler (kinases); Cerep (receptors and ion channels)
# VRK2 = biological target: T41, VRK2 (Homo sapiens, UniProt Q86Y07); test: Millipore kinase panel; type: biochemical; conditions: read-out: % Control
# T41 construct: purchased Millipore KinaseProfiler (kinases); Cerep (receptors and ion channels)
# TEC ACTIVATED = biological target: T42, TEC ACTIVATED (Homo sapiens, UniProt P42680); test: Millipore kinase panel; type: biochemical; conditions: read-out: % Control
# T42 construct: purchased Millipore KinaseProfiler (kinases); Cerep (receptors and ion channels)
# T42 sequence (P42680 whole entry): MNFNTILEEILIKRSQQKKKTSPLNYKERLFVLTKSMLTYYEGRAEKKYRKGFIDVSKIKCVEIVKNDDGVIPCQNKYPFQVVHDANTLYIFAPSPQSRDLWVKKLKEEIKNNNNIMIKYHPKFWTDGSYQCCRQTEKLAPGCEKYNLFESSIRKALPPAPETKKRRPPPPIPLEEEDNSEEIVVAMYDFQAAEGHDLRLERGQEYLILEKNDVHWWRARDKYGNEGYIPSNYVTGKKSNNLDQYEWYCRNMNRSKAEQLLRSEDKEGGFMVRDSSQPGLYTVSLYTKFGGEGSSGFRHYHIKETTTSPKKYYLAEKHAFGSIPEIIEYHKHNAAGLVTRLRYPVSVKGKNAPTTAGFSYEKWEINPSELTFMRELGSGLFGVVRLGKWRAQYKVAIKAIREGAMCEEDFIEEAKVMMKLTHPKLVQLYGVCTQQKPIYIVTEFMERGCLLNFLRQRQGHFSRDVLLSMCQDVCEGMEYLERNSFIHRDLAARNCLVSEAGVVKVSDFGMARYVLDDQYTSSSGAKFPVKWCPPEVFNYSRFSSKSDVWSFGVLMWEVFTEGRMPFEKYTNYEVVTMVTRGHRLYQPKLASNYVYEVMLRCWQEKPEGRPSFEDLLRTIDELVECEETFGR
structure (smiles),measurement,setting,value
"Cn1cc(-c2ccc(-c3cncc(Cl)c3N3CCC4(CCNC4=O)CC3)cc2)cn1 [Compound 74, 8-(3-Chloro-5-(4-(1-methyl-1H-pyrazol-4-yl)phenyl)pyridin-4-yl)-2,8-diazaspiro[4.5]decan-1-one]",% Inhibition of Control Specific Binding,α1 (non-selective),8%
same,inhibition at 10 µM,ETA (h),-9%
same,inhibition at 10 µM,GAL2 (h),2%
same,inhibition at 10 µM,H1 (h),16%
same,inhibition at 10 µM,H2 (h),-2%
same,inhibition at 10 µM,NK3 (h),4%
same,% Inhibition of Control Specific Binding,κ (KOP),72%
same,inhibition at 10 µM,5-HT1A (h),19%
same,inhibition at 10 µM,5-HT7 (h),1%
same,% Control,BLK,0% and 6%
same,remaining activity at 1 µM,CAMKI,-12%
same,remaining activity at 1 µM,CDK5/P25,-21%
same,remaining activity at 1 µM,CDK6/CYCLIND3,-3%
same,remaining activity at 1 µM,CDK7/CYCLINH/MAT1,4%
same,remaining activity at 1 µM,DMPK,9%
same,remaining activity at 1 µM,DYRK2,-9%
same,remaining activity at 1 µM,EPHA1,-2%
same,remaining activity at 1 µM,EPHA2,-7%
same,remaining activity at 1 µM,EPHB3,-2%
same,remaining activity at 1 µM,FGFR1,-49%
same,remaining activity at 1 µM,FGR,0%
same,remaining activity at 1 µM,FLT1,-5%
same,remaining activity at 1 µM,HIPK1,10%
same,remaining activity at 1 µM,IRAK4,-3%
same,remaining activity at 1 µM,JNK1ALPHA1,-9%
same,remaining activity at 1 µM,CKIT,13%
same,remaining activity at 1 µM,LOK,-6%
same,remaining activity at 1 µM,MLCK,1%
same,remaining activity at 1 µM,MLK1,-5%
same,remaining activity at 1 µM,MRCKBETA,-4%
same,remaining activity at 1 µM,MSK1,5%
same,remaining activity at 1 µM,MUSK,6%
same,remaining activity at 1 µM,PAK4,9%
same,remaining activity at 1 µM,PDGFRALPHA,-5%
same,remaining activity at 1 µM,RON,-9%
same,remaining activity at 1 µM,SAPK2A,1%
same,remaining activity at 1 µM,SAPK3,13%
same,remaining activity at 1 µM,SNK,-1%
same,remaining activity at 1 µM,SRPK1,-4%
same,remaining activity at 1 µM,ZAP-70,6%
same,remaining activity at 1 µM,GRK6,-1%
same,remaining activity at 1 µM,FAK,-5%
same,remaining activity at 1 µM,VRK2,-2%
same,remaining activity at 1 µM,TEC ACTIVATED,14%
